Reference: US20210070748A1, “INHIBITORS OF BRUTONS TYROSINE KINASE” (Pharmacyclics LLC, priority 2015, published 2021)

What was measured:
Assay type in all cases: biochemical
ITK = target: T1, ITK (Homo sapiens, UniProt Q08881); experiment: Inhibition of a panel of kinases, in vitro HotSpot kinase assay: ITK
T1 sequence (Q08881 1-620): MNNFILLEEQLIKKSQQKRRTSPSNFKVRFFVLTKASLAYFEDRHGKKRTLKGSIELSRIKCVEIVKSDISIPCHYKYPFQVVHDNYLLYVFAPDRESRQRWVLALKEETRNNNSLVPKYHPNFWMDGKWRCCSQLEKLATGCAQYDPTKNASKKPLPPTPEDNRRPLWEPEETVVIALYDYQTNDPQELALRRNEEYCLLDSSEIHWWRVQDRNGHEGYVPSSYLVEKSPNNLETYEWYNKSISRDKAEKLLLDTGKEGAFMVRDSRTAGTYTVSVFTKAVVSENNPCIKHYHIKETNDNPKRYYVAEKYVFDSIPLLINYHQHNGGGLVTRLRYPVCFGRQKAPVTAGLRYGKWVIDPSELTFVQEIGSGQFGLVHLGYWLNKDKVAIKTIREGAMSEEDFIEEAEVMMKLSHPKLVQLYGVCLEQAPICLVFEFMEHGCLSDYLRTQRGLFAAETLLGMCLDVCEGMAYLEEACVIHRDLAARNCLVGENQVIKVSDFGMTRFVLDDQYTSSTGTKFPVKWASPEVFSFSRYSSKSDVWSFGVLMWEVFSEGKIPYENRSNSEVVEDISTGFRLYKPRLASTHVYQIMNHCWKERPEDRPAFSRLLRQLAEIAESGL
Description: (§1) The degree of inhibition of a panel of kinases is determined using the in vitro HotSpot kinase assay (purified enzymes, ^33P-ATP, an appropriate substrate and 1 μM ATP).

EGFR = EGFR (Homo sapiens, UniProt P00533); experiment: Inhibition of a panel of kinases, in vitro HotSpot kinase assay: EGFR
Description: as §1

SRC = SRC (Homo sapiens, UniProt P12931); experiment: Inhibition of a panel of kinases, in vitro HotSpot kinase assay: SRC
Description: as §1

TEC = target: T2, TEC (Homo sapiens, UniProt P42680); experiment: Inhibition of a panel of kinases, in vitro HotSpot kinase assay: TEC
T2 sequence (P42680 1-631): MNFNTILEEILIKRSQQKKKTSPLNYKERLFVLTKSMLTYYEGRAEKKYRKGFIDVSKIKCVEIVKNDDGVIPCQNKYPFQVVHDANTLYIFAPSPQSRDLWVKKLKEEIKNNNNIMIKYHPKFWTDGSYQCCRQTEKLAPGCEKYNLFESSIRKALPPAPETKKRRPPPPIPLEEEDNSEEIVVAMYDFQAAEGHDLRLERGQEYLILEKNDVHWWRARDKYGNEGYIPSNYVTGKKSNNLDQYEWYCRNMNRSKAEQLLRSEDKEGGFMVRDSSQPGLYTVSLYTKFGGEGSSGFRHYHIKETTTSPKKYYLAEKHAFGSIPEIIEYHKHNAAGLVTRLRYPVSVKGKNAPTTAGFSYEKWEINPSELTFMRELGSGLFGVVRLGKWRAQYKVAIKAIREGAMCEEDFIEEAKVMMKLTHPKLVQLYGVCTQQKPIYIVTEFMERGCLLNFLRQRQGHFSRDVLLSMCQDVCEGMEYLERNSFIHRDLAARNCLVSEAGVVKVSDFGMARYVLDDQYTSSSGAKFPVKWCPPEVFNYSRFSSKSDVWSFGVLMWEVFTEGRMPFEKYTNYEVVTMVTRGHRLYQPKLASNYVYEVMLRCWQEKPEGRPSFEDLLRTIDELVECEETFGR
Description: as §1

[1] = Table 13, A compounds, 1 μM ATP

SRC, sequence (P12931 whole entry): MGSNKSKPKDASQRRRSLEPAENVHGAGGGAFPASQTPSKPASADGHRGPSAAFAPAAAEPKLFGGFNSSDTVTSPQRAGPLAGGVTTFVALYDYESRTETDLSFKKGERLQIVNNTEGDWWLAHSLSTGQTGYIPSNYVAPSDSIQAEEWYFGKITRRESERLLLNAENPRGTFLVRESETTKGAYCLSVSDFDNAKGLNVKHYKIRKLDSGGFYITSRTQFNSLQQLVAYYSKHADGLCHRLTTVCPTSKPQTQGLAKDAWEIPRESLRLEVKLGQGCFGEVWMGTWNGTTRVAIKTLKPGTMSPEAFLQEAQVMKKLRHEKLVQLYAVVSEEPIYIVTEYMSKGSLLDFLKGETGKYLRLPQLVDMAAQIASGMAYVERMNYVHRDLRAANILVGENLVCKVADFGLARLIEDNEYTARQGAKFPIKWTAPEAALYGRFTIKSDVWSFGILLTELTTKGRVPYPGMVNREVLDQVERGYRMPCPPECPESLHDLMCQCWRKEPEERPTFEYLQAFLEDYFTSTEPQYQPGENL
EGFR, sequence (P00533 25-1210): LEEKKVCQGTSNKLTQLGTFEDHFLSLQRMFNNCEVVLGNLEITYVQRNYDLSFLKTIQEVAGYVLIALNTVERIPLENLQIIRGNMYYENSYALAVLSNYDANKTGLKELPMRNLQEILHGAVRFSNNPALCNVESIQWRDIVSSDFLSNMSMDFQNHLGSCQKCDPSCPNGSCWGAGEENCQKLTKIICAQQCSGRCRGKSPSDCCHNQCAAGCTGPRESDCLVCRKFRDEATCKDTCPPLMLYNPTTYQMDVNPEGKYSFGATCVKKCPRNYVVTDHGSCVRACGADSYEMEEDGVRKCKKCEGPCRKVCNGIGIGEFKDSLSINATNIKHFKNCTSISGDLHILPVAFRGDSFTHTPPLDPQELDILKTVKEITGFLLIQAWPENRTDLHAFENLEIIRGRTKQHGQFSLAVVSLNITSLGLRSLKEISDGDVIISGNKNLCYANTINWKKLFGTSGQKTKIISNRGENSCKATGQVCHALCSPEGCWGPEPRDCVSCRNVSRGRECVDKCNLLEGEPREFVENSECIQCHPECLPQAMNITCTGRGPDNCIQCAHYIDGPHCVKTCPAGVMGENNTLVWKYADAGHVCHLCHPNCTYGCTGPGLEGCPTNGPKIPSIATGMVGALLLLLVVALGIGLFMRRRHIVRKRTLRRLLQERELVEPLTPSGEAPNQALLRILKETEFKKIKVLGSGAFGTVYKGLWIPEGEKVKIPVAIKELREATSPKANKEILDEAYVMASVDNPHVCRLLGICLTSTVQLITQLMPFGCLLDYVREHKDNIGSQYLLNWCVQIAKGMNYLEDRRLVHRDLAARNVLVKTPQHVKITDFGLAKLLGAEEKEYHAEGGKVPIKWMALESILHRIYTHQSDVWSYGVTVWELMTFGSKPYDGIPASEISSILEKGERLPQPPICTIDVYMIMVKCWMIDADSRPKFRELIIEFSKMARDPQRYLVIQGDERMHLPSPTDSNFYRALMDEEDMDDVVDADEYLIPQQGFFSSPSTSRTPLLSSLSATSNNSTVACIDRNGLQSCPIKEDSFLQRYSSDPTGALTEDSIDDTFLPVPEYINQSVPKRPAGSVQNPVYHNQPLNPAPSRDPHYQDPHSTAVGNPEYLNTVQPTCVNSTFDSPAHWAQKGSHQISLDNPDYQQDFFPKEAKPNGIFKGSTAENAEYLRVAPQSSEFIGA

| SMILES | IC50 (ITK; [1]) [nM] | IC50 (EGFR; [1]) [nM] | IC50 (SRC; [1]) [nM] | IC50 (TEC; [1]) [nM] | IC50 (ITK; E compounds, Table 17) [nM] | IC50 (EGFR; E compounds, Table 17) [nM] | IC50 (SRC; E compounds, Table 17) [nM] | IC50 (TEC; E compounds, Table 17) [nM] |
| --- | --- | --- | --- | --- | --- | --- | --- | --- |
| C[C@@H]1[C@H](NC(=O)c2ccc(C3CC3)nc2)CCCN1c1cnc(C(N)=O)c(Nc2cnn(C)c2)n1 [Example A-190, 5-((2R,3R)-3-(6-cyclopropylnicotinamido)-2-methylpiperidin-1-yl)-3-(1-methyl-1H-pyrazol-4-ylamino)pyr-azine-2-carboxamide] | 100 to 1000 | 1000 to 10000 | 10 to 100 | 10 to 100 | – | – | – | – |
| Cc1cc(Nc2nc(N3CC[C@H](O)[C@@H](N4CCC[C@@H](Nc5cc(Cl)cc(C(F)(F)F)c5)C4=O)C3)nnc2C(N)=O)sn1 [Example E-10, 3-((3R,3'S,4'S)-3-(3-chloro-5-(trifluoromethyl)phenylamino)-4′-hydroxy-2-oxo-1,3′-bipiperidin-1-yl)-5-(3-methylisothiazol-5-ylamino)-1,2,4-triazine-6-carboxamide] | – | – | – | – | ≤ 10 | 10 to 100 | ≤ 10 | 10 to 100 |
| C=CC(=O)N1CCC[C@@H](Nc2nnc(C(N)=O)c(Nc3cc(C)ns3)n2)C1 [Example E-11, (R)-3-(1-acryloylpiperidin-3-ylamino)-5-(3-methylisothiazol-5-ylamino)-1,2,4-triazine-6-carboxamide] | – | – | – | – | ≤ 10 | ≤ 10 | 10 to 100 | ≤ 10 |
| C=CC(=O)N1CC[C@@H](N(C)c2nnc(C(N)=O)c(Nc3cc(C)ns3)n2)C1 [Example E-12, (R)-3-((1-acryloylpyrrolidin-3-yl)(methyl)amino)-5-(3-methylisothiazol-5-ylamino)-1,2,4-triazine-6-carboxamide] | – | – | – | – | ≤ 10 | 10 to 100 | 10 to 100 | ≤ 10 |
| C=CC(=O)N1CC[C@@H](N(C)c2nnc(C(N)=O)c(Nc3ccc(C(C)C)cc3)n2)C1 [Example E-26, (R)-3-((1-acryloylpyrrolidin-3-yl)(methyl)amino)-5-(4-isopropylphenylamino)-1,2,4-triazine-6-carboxamide] | – | – | – | – | ≤ 10 | ≤ 10 | 10 to 100 | ≤ 10 |
| C=CC(=O)N1CCC[C@@H](Nc2nnc(C(N)=O)c(Nc3ccc(-c4ncco4)cc3)n2)C1 [Example E-40, (R)-3-(1-acryloylpiperidin-3-ylamino)-5-(4-(oxazol-2-yl)phenylamino)-1,2,4-triazine-6-carboxamide] | – | – | – | – | 10 to 100 | ≤ 10 | 100 to 1000 | ≤ 10 |
| C=CC(=O)N1CCC[C@@H](Nc2nnc(C(N)=O)c(Nc3ccc(-c4ncccn4)cc3)n2)C1 [Example E-41, (R)-3-(1-acryloylpiperidin-3-ylamino)-5-(4-(pyrimidin-2-yl)phenylamino)-1,2,4-triazine-6-carboxamide] | – | – | – | – | 10 to 100 | 10 to 100 | 100 to 1000 | ≤ 10 |
| C=CC(=O)N1CCC[C@@H](Nc2nnc(C(N)=O)c(Nc3ccc(C4CCN(C(=O)CC)CC4)cc3)n2)C1 [Example E-45, (R)-3-(1-acryloylpiperidin-3-ylamino)-5-(4-(1-propionylpiperidin-4-yl)phenylamino)-1,2,4-triazine-6-carboxamide] | – | – | – | – | ≤ 10 | ≤ 10 | 10 to 100 | ≤ 10 |
| C=CC(=O)N[C@@H]1CCCN(c2cnc(C(N)=O)c(Nc3ccc(C4CCN(C5CC5)CC4)cc3)n2)[C@@H]1C [Example E-93, 5-((2R,3R)-3-acrylamido-2-methylpiperidin-1-yl)-3-(4-(1-cyclopropylpiperidin-4-yl)phenylamino)pyrazine-2-carboxamide] | – | – | – | – | 10 to 100 | 10 to 100 | ≤ 10 | ≤ 10 |
| C=CC(=O)N[C@@H]1CCCN(c2cnc(C(N)=O)c(Nc3cc(C)ns3)n2)[C@@H]1C [Example E-97, 5-((2R,3R)-3-acrylamido-2-methylpiperidin-1-yl)-3-(3-methylisothiazol-5-ylamino)pyrazine-2-carboxamide] | – | – | – | – | 10 to 100 | 10 to 100 | ≤ 10 | ≤ 10 |
| C=CC(=O)N1CCC[C@@H](N(C)c2cnc(C(N)=O)c(Nc3ccc(C4(C)CCN(C5CCCC5)CC4)cc3)n2)C1 [Example E-103, (R)-5-((1-acryloylpiperidin-3-yl)(methyl)amino)-3-(4-(1-cyclopentyl-4-methylpiperidin-4-yl)phenylamino)pyrazine-2-carboxamide] | – | – | – | – | ≤ 10 | ≤ 10 | ≤ 10 | ≤ 10 |
| C=CC(=O)N1CC[C@@H](N(C)c2cnc(C(N)=O)c(Nc3ccc(C4CCN(C5CCCC5)CC4)cc3)n2)C1 [Example E-109, (R)-5-((1-acryloylpyrrolidin-3-yl)(methyl)amino)-3-(4-(1-cyclopentylpiperidin-4-yl)phenylamino)pyrazine-2-carboxamide] | – | – | – | – | ≤ 10 | 10 to 100 | 10 to 100 | ≤ 10 |
| C=CC(=O)N1CC[C@@H](N(C)c2cnc(C(N)=O)c(Nc3cnn(CCOC)c3)n2)C1 [Example E-110, (R)-5-((1-acryloylpyrrolidin-3-yl)(methyl)amino)-3-(1-(2-methoxyethyl)-1H-pyrazol-4-ylamino)pyrazine-2-carboxamide] | – | – | – | – | ≤ 10 | 100 to 1000 | 100 to 1000 | ≤ 10 |

Next, values leading:

| IC50 (ITK; [1]) [nM] | IC50 (EGFR; [1]) [nM] | IC50 (SRC; [1]) [nM] | IC50 (TEC; [1]) [nM] | IC50 (ITK; E compounds, Table 17) [nM] | IC50 (EGFR; E compounds, Table 17) [nM] | IC50 (SRC; E compounds, Table 17) [nM] | IC50 (TEC; E compounds, Table 17) [nM] | SMILES |
| --- | --- | --- | --- | --- | --- | --- | --- | --- |
| – | – | – | – | ≤ 10 | ≤ 10 | 10 to 100 | ≤ 10 | C=CC(=O)N1CC[C@@H](N(C)c2cnc(C(N)=O)c(Nc3ccc(C4CCN(C5CC5)CC4)cc3)n2)C1 [Example E-121, (R)-5-((1-acryloylpyrrolidin-3-yl)(methyl)amino)-3-(4-(1-cyclopropylpiperidin-4-yl)phenylamino)pyrazine-2-carboxamide] |
| – | – | – | – | ≤ 10 | 10 to 100 | ≤ 10 | ≤ 10 | C=CC(=O)N1CCC[C@@H](N(C)c2cnc(C(N)=O)c(Nc3ccc(C4CCN(C5CCCC5)CC4)cc3)n2)C1 [Example E-125, (R)-5-((1-acryloylpiperidin-3-yl)(methyl)amino)-3-(4-(1-cyclopentylpiperidin-4-yl)phenylamino)pyrazine-2-carboxamide] |
| – | – | – | – | 10 to 100 | 100 to 1000 | 10 to 100 | ≤ 10 | C[C@@H]1[C@H](NC(=O)c2ccc(C3CC3)cc2)CCCN1c1cnc(C(N)=O)c(Nc2ccc(OC3CCN(C)C3)cc2)n1 (stereo partly drawn) [Example E-136, 5-((2R,3R)-3-(4-cyclopropylbenzamido)-2-methylpiperidin-1-yl)-3-((4-((1-methylpyrrolidin-3-yl)oxy)phenyl)amino) pyrazine-2-carboxamide] |
| – | – | – | – | 10 to 100 | 1000 to 10000 | 10 to 100 | 10 to 100 | C[C@@H]1[C@H](NC(=O)c2ccc(C3CC3)cc2)CCCN1c1cnc(C(N)=O)c(Nc2ccc(N3CCN(C4CCCC4)C[C@@H]3C)cc2)n1 [Example E-137, 3-((4-((S)-4-cyclopentyl-2-methylpiperazin-1-yl)phenyl)amino)-5-((2R,3R)-3-(4-cyclopropylbenzamido)-2-methyipiperidin-1-yl)pyrazine-2-carboxamide] |
| – | – | – | – | 100 to 1000 | 100 to 1000 | 10 to 100 | ≤ 10 | C[C@@H]1[C@H](NC(=O)c2ccc(C(=O)N(C)C)cc2)CCCN1c1cnc(C(N)=O)c(Nc2cnn(C)c2)n1 [Example E-138, N1-((2R,3R)-1-(5-carbamoyl-6-((1-methyl-1H-pyrazol-4-yl)amino)pyrazin-2-yl)-2-methylpiperidin-3-yl)-N4,N4-dimethylterephthalamide] |
| – | – | – | – | 100 to 1000 | 100 to 1000 | 10 to 100 | ≤ 10 | C[C@@H]1[C@H](NC(=O)c2ccc3oc(C4CC4)nc3c2)CCCN1c1cnc(C(N)=O)c(Nc2cnn(C)c2)n1 [Example E-139, N-((2R,3R)-1-(5-carbamoyl-6-((1-methyl-1H-pyrazol-4-yl)amino)pyrazin-2-yl)-2-methylpiperidin-3-yl)-2-cyclopropylbenzo[d] oxazole-5-carboxamide] |
